Results taken from patent publication US12522601B2, “1,3,4-oxadiazole derivative compounds as histone deacetylase 6 inhibitor, and the pharmaceutical composition comprising the same” (CHONG KUN DANG PHARMACEUTICAL CORP., priority 2020, dated 2026).

Assays:
[1] = biological target: T1, human recombinant HDAC1 (Homo sapiens, UniProt Q13547); assay: In vitro HDAC enzyme activity inhibition assay, HDAC1 (HDAC Fluorimetric Drug Discovery Kit); type: biochemical; conditions: human recombinant HDAC1, Fluor de Lys-SIRT1 substrate 10 μM, 30° C. for 60 minutes
T1 construct: purchased Enzo Life Sciences, Inc. BML-SE456
T1 sequence (Q13547 whole entry): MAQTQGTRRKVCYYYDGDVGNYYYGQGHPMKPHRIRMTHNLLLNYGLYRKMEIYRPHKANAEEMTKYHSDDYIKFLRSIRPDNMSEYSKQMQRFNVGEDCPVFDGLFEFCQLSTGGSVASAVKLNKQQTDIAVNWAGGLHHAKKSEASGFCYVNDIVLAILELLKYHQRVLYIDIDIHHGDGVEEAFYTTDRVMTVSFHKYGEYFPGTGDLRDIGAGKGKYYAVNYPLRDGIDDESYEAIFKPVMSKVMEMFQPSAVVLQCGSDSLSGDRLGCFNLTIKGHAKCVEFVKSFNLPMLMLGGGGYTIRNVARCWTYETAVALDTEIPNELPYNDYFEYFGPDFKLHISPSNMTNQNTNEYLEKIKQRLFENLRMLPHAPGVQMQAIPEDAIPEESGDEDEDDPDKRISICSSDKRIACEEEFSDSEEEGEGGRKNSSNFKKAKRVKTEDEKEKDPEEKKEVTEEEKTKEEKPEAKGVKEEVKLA
Protocol: (§1) In order to confirm the selectivity of the compounds represented by Chemical Formula I of the present invention to HDAC6 through HDAC1 and HDAC6 enzyme activity inhibition experiments, a comparison experiment was performed using the material that has already been developed as a control group.
(§2) HDAC enzyme activity was measured using the HDAC Fluorimetric Drug Discovery Kit (Enzo Life Sciences, Inc., BML-AK511, 516). For the HDAC1 enzyme activity test, human recombinant HDAC1 (BML-SE456) was used as an enzyme source and Fluor de Lys®-SIRT1 (BNL-KI177) was used as a substrate. After dispensing 5-fold diluted compounds into a 96-well plate, 0.3 μg of enzyme and 10 μM substrate were added to each well of the plate and allowed to react at 30° C. for 60 minutes. Next, Fluor de Lys® Developer II (BML-KI176) was added and reacted for 30 minutes to complete the reaction, and then the fluorescence values (Ex 360, Em 460) were measured using a multi-plate reader (Flexstation 3, Molecular Device). The HDAC6 enzymes were tested using human recombinant HDAC6 (382180) from Calbiochem Inc., according to the same protocol as the HDAC1 enzyme activity test method. With respect to the final result values, respective IC50 values were calculated using GraphPad Prism 4.0 program, and results thereof were summarized in Table 5 below.

[2] = biological target: T2, human recombinant HDAC6 (Homo sapiens, UniProt Q9UBN7); assay: In vitro HDAC enzyme activity inhibition assay, HDAC6 (HDAC Fluorimetric Drug Discovery Kit); type: biochemical; conditions: for HDAC6 Selectivity (fold): HDAC6 versus HDAC1; for IC50: human recombinant HDAC6, same protocol as the HDAC1 test
T2 construct: purchased Calbiochem Inc. 382180
T2 sequence (Q9UBN7 1-1215): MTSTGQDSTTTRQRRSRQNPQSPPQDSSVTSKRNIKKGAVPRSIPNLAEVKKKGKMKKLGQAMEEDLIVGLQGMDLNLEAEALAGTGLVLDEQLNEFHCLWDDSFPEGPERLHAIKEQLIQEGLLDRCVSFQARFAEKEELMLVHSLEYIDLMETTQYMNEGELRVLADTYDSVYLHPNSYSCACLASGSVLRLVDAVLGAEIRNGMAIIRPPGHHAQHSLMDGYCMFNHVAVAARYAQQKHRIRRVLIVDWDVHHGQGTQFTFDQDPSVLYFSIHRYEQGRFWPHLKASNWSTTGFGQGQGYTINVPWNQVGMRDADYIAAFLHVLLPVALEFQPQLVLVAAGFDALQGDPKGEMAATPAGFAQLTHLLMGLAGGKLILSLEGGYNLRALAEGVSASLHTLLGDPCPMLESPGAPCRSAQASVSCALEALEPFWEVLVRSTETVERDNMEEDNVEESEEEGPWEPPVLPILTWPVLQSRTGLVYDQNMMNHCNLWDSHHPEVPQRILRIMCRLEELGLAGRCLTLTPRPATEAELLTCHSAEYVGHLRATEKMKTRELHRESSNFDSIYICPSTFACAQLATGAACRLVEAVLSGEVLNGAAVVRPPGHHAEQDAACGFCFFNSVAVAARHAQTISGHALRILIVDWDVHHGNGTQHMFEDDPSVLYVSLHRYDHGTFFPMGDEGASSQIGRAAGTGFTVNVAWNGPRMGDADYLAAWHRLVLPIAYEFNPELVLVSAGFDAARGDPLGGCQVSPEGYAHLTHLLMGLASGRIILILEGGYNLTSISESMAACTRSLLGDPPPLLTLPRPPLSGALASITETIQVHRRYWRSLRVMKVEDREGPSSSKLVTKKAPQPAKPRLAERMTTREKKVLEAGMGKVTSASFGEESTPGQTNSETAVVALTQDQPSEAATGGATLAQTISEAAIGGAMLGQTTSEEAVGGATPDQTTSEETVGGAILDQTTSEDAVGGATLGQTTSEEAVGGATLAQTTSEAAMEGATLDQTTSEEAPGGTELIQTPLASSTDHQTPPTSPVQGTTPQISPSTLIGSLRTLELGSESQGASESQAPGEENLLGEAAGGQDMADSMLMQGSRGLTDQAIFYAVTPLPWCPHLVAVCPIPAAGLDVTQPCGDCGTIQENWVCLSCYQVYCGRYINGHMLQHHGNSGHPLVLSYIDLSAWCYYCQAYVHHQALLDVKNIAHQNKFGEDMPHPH
Protocol: as §1, §2

**Q.** How did the IC50 [1] turn out when `O=C(C1CN(C2CCC2)C1)N(Cc1cn2ccc(-c3nnc(C(F)F)o3)cc2n1)c1cccc(F)c1` [Compound 4192, 1-cyclobutyl-N-((7-(5-(difluoromethyl)-1,3,4-oxadiazol-2-yl)imidazo[1,2-a]pyridin-2-yl)methyl)-N-(3-fluorophenyl) azetidine-3-carboxamide] was run?
**A.** > 50000 nM

**Q.** And the “HDAC6 Selectivity (fold)” value [2]?
**A.** 452 fold

**Q.** And the IC50 [2]?
**A.** 111 nM

**Q.** What does the source list for `CN(C)C(=O)N1CCC(C(=O)N(Cc2cn3ccc(-c4nnc(C(F)F)o4)cc3n2)c2ccccc2)CC1` [Compound 4130, N4-((7-(5-(difluoromethyl)-1,3,4-oxadiazol-2-yl)imidazo[1,2-a]pyridin-2-yl)methyl)-N1,N1-dimethyl-N4-phenylpiperidine-1,4-dicarboxamide]?
**A.** IC50 [1]: > 50000 nM; HDAC6 Selectivity (fold) [2]: 133 fold; IC50 [2]: 375 nM

**Q.** What does the source list for `O=C(C1CCC1)N1CC(C(=O)N(Cc2cn3ccc(-c4nnc(C(F)F)o4)cc3n2)c2ccccc2)C1` [Compound 4170, 1-(cyclobutanecarbonyl)-N-((7-(5-(difluoromethyl)-1,3,4-oxadiazol-2-yl)imidazo[1,2-a]pyridine-2-yl)methyl)-N-phenylazetidine-3-carboxamide]?
**A.** IC50 [1]: > 50000 nM; HDAC6 Selectivity (fold) [2]: 144 fold; IC50 [2]: 347 nM

**Q.** With `CCN1CCC(C(=O)N(Cc2cn3ccc(-c4nnc(C(F)F)o4)cc3n2)c2ccccc2)CC1` [Compound 4115, N-((7-(5-(difluoromethyl)-1,3,4-oxadiazol-2-yl)imidazo[1,2-a]pyridin-2-yl)methyl)-1-ethyl-N-phenylpiperidine-4-carboxamide] as the molecule, how does the IC50 [1] read?
**A.** > 50000 nM

**Q.** And the “HDAC6 Selectivity (fold)” value [2]?
**A.** 141 fold

**Q.** And the IC50 [2]?
**A.** 354 nM

**Q.** What does the source list for `CCC(=O)N1CCC(C(=O)N(Cc2cn3ccc(-c4nnc(C(F)F)o4)cc3n2)c2ccccc2)CC1` [Compound 4123, N-((7-(5-(difluoromethyl)-1,3,4-oxadiazol-2-yl)imidazo[1,2-a]pyridin-2-yl)methyl)-N-phenyl-1-propionylpiperidine-4-carboxamide]?
**A.** IC50 [1]: > 50000 nM; HDAC6 Selectivity (fold) [2]: 163 fold; IC50 [2]: 307 nM

**Q.** Which results are given for `O=C(N1CCN(C(=O)C(F)(F)F)CC1)N(Cc1cn2ccc(-c3nnc(C(F)F)o3)cc2n1)c1ccccc1` [Compound 4044, N-((7-(5-(difluoromethyl)-1,3,4-oxadiazol-2-yl)imidazo[1,2-a]pyridin-2-yl)methyl)-N-phenyl-4-(2,2,2-trifluoroacetyl)piperazine-1-carboxamide]?
**A.** IC50 [1]: > 50000 nM; HDAC6 Selectivity (fold) [2]: 384 fold; IC50 [2]: 130 nM

**Q.** What does the source list for `O=C(N1CCN(C2CCC2)CC1)N(Cc1cn2ccc(-c3nnc(C(F)F)o3)cc2n1)c1cccc(F)c1` [Compound 4087, 4-cyclobutyl-N-((7-(5-(difluoromethyl)-1,3,4-oxadiazol-2-yl)imidazo[1,2-a]pyridin-2-yl)methyl)-N-(3-fluorophenyl)piperazine-1-carboxamide]?
**A.** IC50 [1]: > 50000 nM; HDAC6 Selectivity (fold) [2]: 214 fold; IC50 [2]: 233 nM

**Q.** For `CC(CO)N1CC(C(=O)N(Cc2cn3ccc(-c4nnc(C(F)F)o4)cc3n2)c2cccc(F)c2)C1` (stereo not drawn) [Compound 4191, N-((7-(5-(difluoromethyl)-1,3,4-oxadiazol-2-yl)imidazo[1,2-a]pyridin-2-yl)methyl)-N-(3-fluorophenyl)-1-(1-hydroxypropan-2-yl) azetidine-3-carboxamide], which IC50 [1] is on record?
**A.** > 50000 nM

**Q.** What about the “HDAC6 Selectivity (fold)” value [2] of the same molecule?
**A.** 373 fold

**Q.** What about the IC50 [2] of the same molecule?
**A.** 134 nM

**Q.** Which results are given for `O=C(N1CCN(C2CC3(CCC3)C2)CC1)N(Cc1cn2ccc(-c3nnc(C(F)F)o3)cc2n1)c1cccc(F)c1` [Compound 4620]?
**A.** IC50 [1]: > 50000 nM; HDAC6 Selectivity (fold) [2]: 190 fold; IC50 [2]: 263 nM

**Q.** With `O=C(C1CN(C2CCC(F)(F)CC2)C1)N(Cc1cn2ccc(-c3nnc(C(F)F)o3)cc2n1)c1cccc(F)c1` [Compound 4196, 1-(4,4-Difluorocyclohexyl)-N-((7-(5-(difluoromethyl)-1,3,4-oxadiazol-2-yl)imidazo[1,2-a]pyridin-2-yl)methyl)-N-(3-fluorophenyl) azetidine-3-carboxamide] as the molecule, how does the IC50 [1] read?
**A.** > 50000 nM

**Q.** And the “HDAC6 Selectivity (fold)” value [2]?
**A.** 276 fold

**Q.** And the IC50 [2]?
**A.** 181 nM

**Q.** Which IC50 [1] does the source give for `O=C(C1COC1)N1CC(C(=O)N(Cc2cn3ccc(-c4nnc(C(F)F)o4)cc3n2)c2cccc(F)c2)C1` [Compound 4201, N-((7-(5-(difluoromethyl)-1,3,4-oxadiazol-2-yl)imidazo[1,2-a]pyridin-2-yl)methyl)-N-(3-fluorophenyl)-1-(oxetane-3-carbonyl) azetidine-3-carboxamide] here?
**A.** > 50000 nM

**Q.** And the “HDAC6 Selectivity (fold)” value [2]?
**A.** 177 fold

**Q.** And the IC50 [2]?
**A.** 283 nM

**Q.** With `CS(=O)(=O)N1CCN(C(=O)N(Cc2cn3ccc(-c4nnc(C(F)F)o4)cc3n2)c2cccc(F)c2)CC1` [Compound 4097, N-((7-(5-(difluoromethyl)-1,3,4-oxadiazol-2-yl)imidazo[1,2-a]pyridin-2-yl)methyl)-N-(3-fluorophenyl)-4-(methylsulfonyl)piperazine-1-carboxamide] as the molecule, how does the IC50 [1] read?
**A.** > 50000 nM

**Q.** And the “HDAC6 Selectivity (fold)” value [2]?
**A.** 335 fold

**Q.** What about the IC50 [2] of the same molecule?
**A.** 149 nM

**Q.** How did the IC50 [1] turn out when `CCN1CCN(C(=O)N(Cc2cn3ccc(-c4nnc(C(F)F)o4)cc3n2)c2cccc(F)c2)CC1` [Compound 4084, N-((7-(5-(difluoromethyl)-1,3,4-oxadiazol-2-yl)imidazo[1,2-a]pyridin-2-yl)methyl)-4-ethyl-N-(3-fluorophenyl)piperazine-1-carboxamide] was run?
**A.** > 50000 nM

**Q.** What about the “HDAC6 Selectivity (fold)” value [2] of the same molecule?
**A.** 183 fold

**Q.** And the IC50 [2]?
**A.** 273 nM

**Q.** What does the source list for `O=C(C1CCN(C2CCC(F)(F)CC2)CC1)N(Cc1cn2ccc(-c3nnc(C(F)F)o3)cc2n1)c1ccccc1` [Compound 4121, 1-(4,4-difluorocyclohexyl)-N-((7-(5-(difluoromethyl)-1,3,4-oxadiazol-2-yl)imidazo[1,2-a]pyridin-2-yl)methyl)-N-phenylpiperidine-4-carboxamide]?
**A.** IC50 [1]: > 50000 nM; HDAC6 Selectivity (fold) [2]: 122 fold; IC50 [2]: 411 nM

**Q.** For `CC(CO)N1CC(C(=O)N(Cc2cn3ccc(-c4nnc(C(F)F)o4)cc3n2)c2ccccc2)C1` (stereo not drawn) [Compound 4161, N-((7-(5-(difluoromethyl)-1,3,4-oxadiazol-2-yl)imidazo[1,2-a]pyridin-2-yl)methyl)-1-(1-hydroxypropan-2-yl)-N-phenylazetidine-3-carboxamide], which IC50 [1] is on record?
**A.** > 50000 nM

**Q.** What about the “HDAC6 Selectivity (fold)” value [2] of the same molecule?
**A.** 224 fold

**Q.** What about the IC50 [2] of the same molecule?
**A.** 223 nM

**Q.** Which results are given for `O=C(C1CN(C(=O)C(F)(F)F)C1)N(Cc1cn2ccc(-c3nnc(C(F)F)o3)cc2n1)c1ccccc1` [Compound 4172, N-((7-(5-(difluoromethyl)-1,3,4-oxadiazol-2-yl)imidazo[1,2-a]pyridin-2-yl)methyl)-N-phenyl-1-(2,2,2-trifluoroacetyl) azetidine-3-carboxamide]?
**A.** IC50 [1]: > 50000 nM; HDAC6 Selectivity (fold) [2]: 184 fold; IC50 [2]: 272 nM

**Q.** `O=C(C1CN(C2CCOCC2)C1)N(Cc1cn2ccc(-c3nnc(C(F)F)o3)cc2n1)c1ccccc1` [Compound 4165, N-((7-(5-(difluoromethyl)-1,3,4-oxadiazol-2-yl)imidazo[1,2-a]pyridin-2-yl)methyl)-N-phenyl-1-(tetrahydro-2H-pyran-4-yl) azetidine-3-carboxamide] was tested. Which IC50 [1] did it give?
**A.** > 50000 nM

**Q.** What about the “HDAC6 Selectivity (fold)” value [2] of the same molecule?
**A.** 121 fold

**Q.** And the IC50 [2]?
**A.** 413 nM
